Measured values from patent publication US11400160B2, “Multifunctional conjugates” (E.P.O.S IASIS Research and Development Limited, priority 2017, dated 2022).
Like-named read-outs stand apart in the source and are kept apart here.

Experiments:
[1] = system: breast and prostate cancer metastatic cell lines; experiment: Dose response of cell viability of breast and prostate cancer cells (FIG. 1); assay type: cell-based
MDA-MB231 cells = experiment: Cell viability, crystal violet colorimetric assay; assay type: cell-based; details: 72 hrs; for IC50: tested at 0.02-0.1 mM; for EC50: * denotes EC50 value, read-out: EC50 value (starred) MB231
Description: (§1) Immortalised osteolytic metastatic breast cancer cell lines, a) hormone-dependent MCF-7 and b) hormone refractory MDA-MB231, together with the daughter line MDA-MB231TXSA were incubated with 5 gradual concentrations of compounds of the invention as described below. Cell viability was assessed with the crystal violet colorimetric assay and IC50s were evaluated.
(§2) Medium was removed from cell cultures and cells were fixed with 4% v/v formaldehyde for 5 mins at room temperature. Formalin was then removed and CV added for 10 mins at room temperature followed by several washes with dsH2O. Samples were allowed to dry overnight. The following day, 10% acetic acid was added for 15 mins and optical density at 620 nm was measured. Optical densities versus compound concentrations were plotted in graphs and IC50s estimated by linear regression analysis using the WorkOut (VictorX4) software.
(§3) MCF-7, MDA-MB231 and MDA-MB231TXSA cells were seeded in 96-well-plates and allowed to attach overnight. The following day media were replaced with fresh media containing the following compounds: Both free tetraethyl methylbisphosphonate (bpp(OEt)) and bpp(OEt) in 1:1 combination with the free chromanol and the biphosphonate conjugates were tested at 5 gradual concentrations of: 0.02, 0.04, 0.06, 0.08 and 0.1 mM.
(§4) Cells were cultured in the presence of the compounds for 72 hrs and viability was assessed on day 3 by crystal violet assay. The cell lines were selected for their high bone metastatic potential. The fluorescently transfected line MB231TXSA, derived from line MB231 is also used in animal studies (WP7).

MDA-MB231TXSA cells = experiment: Cell viability, crystal violet colorimetric assay; assay type: cell-based; details: 72 hrs; for IC50: tested at 0.02-0.1 mM, read-out: IC50 values MB231-TXSA
Description: as §1, §2, §3, §4

MCF-7 cells = experiment: Cell viability, crystal violet colorimetric assay; assay type: cell-based; details: 72 hrs; for IC50: tested at 0.02-0.1 mM, unstarred values; for EC50: * denotes EC50 value, read-out: EC50 value (starred) MCF-7
Description: as §1, §2
MCF-7, MDA-MB231 and MDA-MB231TXSA cells were seeded in 96-well-plates and allowed to attach overnight. […]
as §4

[2] = system: metastatic breast cancer cell lines (MCF-7, MDA-MB231, MDA-MB231TXSA); experiment: Cell viability / antiproliferative activity, breast cancer lines; assay type: cell-based; details: for antiproliferative activity compared with bpp(OEt): esterified compounds and 1:1 mixtures; for effect on cell viability: viability assays and IC50s, 72 hrs
Description: as §1, §2, §3, §4

RAW264.7 cells = experiment: In vitro osteoclastogenesis of RAW264.7 (TRAP staining); assay type: cell-based, murine; details: RANKL-differentiated; γ-tocopherol at 1 μg/ml and 201 μg/ml; bpp(OEt) at increasing concentrations; FIG. 4
Description: (§5) Human peripheral blood mononuclear cells (PBMCs) and the RAW264.7 murine monocytic cell line were differentiated into osteoclast-like cells in the presence of RANKL plus M-CSF and have been used as model systems of osteoclastogenesis. Osteoclast-like cells, from Giant Cell Tumours (GCT) of bone specimens from three independent donors were used to investigate the effect of compounds of the invention on the bone resorbing activity of mature osteoclasts.
(§6) Cells were cultured in 96-well plates at a density of 1×10^4 cells/well in DMEM medium with 10% FCS, L-glutamine (2 mM) and Hepes (20 mM). Cells were allowed to attach for 4 hrs before treatment with RANKL (50 ng/ml) in the presence or absence of increasing concentrations of compounds of the invention as above. Medium and treatments were replaced on day three and TRAP activity determined on day 5. The overall number of viable cells were determined by crystal violet staining.
Osteoclast cultures established by the differentiation of RAW264.7 cells in wells were fixed and stained for tartrate resistant acid phosphatase (TRAP) as recommended by the manufacturer on days 4 and 5. TRAP positive cells were visualised by light microscopy and images taken with a digital camera.

[3] = system: osteoclasts from RAW264.7 and Human PBMC; experiment: Resorption on pre-loaded whale dentine / osteologic slides (pit formation); assay type: cell-based, murine
From the text: Zoledronic acid was used as control.
as §5
Human PBMCs were isolated from normal healthy donors isolated from the buffy coats acquired from the local Red Cross Blood Service. The cells were diluted in Hanks Balanced Salt Solution (HBSS) and separated by gradient centrifugation with Lymphoprep™. Isolated cells were resuspended in α MOD, 10% FCS, L-glutamine (2 mM), Hepes (20 mM), supplemented with M-CSF (25 ng/ml), 1α,25(OH)2 vitamin D3 (10 nM) and dexamethasone (10 nM) and plated into 96-well plates containing whale dentine slices, for the bone resorption assay or directly into wells for TRAP staining. The following day, media were removed and replaced with media as above, supplemented with RANKL (100 ng/ml) in the presence or absence of increasing concentrations of compounds of the invention. Medium and treatments were replaced every three days.
as §6
Whale dentine slices will be washed in extran, rinsed with distilled water, washed in 70% ethanol and dried overnight. The dentine slices mounted on stubs, carbon-coated and visualised on a Philips XL-20 scanning electron microscope, (SEM) as previously described. Images will be analysed using ImageQuant software and the area of resorption determined for each dentine slice (quadruplicate dentine slices for each treatment). Results are expected to be average resorption area +/− standard errors of the mean (SEM) and the significant differences between treatments will be determined using Students t-tests (2-tailed, unpaired).
(§7) In a separate experiment, pre-loaded bone slices (whale dentine) or commercial forms of hydroxyapatite (osteologic slides) with either free γ-tocopherol (γToc) or γ-tocopherol-bpp(OEt) (BP-γToc) and then washed away unbound drug.

[4] = Binding to pre-loaded bone slices / hydroxyapatite after washing; details: pre-loaded whale dentine or osteologic slides, unbound drug washed away
From the text: as §7

[5] = system: metastatic breast cancer lines; experiment: DAPI staining of apoptotic nuclei; assay type: cell-based; details: cells treated with IC50 concentrations
Description: Compounds with statistically significant decrease in viability were further examined to determine whether their effect was due to induced apoptosis based on morphologic criteria in DAPI-stained cells. […] Pro-apoptotic efficacies were compared using two-way analysis of Variance (ANOVA) followed by Bonferroni post-tests.
Growth medium was removed and cells were fixed with 4% v/v formaldehyde in PBS for 5 mins at room temperature. Fixed cells were washed once with PBS and incubated with 1 μg/ml DAPI in PBS for 20 mins at 37° C. Rinsed with PBS and mounted in mounting medium. Coverslips were sealed on glass slides and examined for the presence of apoptotic cells by fluorescence microscopy (see FIG. 2).

[6] = system: Caspase-3 activity in MB231 breast cancer cell-line; experiment: Caspase-3 enzymatic activity assay; assay type: cell-based; details: IC50 concentrations, two-way ANOVA with Bonferroni post-tests
Description: Cells were grown in 12 well-plates in the presence of IC50 concentrations of compounds of the invention or culture medium with 0.1% v/v ethanol as control and were washed with PBS and incubated with lysis buffer for 15 mins at 4° C. Lysates were centrifuged at 15000 g. 20 μl of each lysate suspension was incubated with 100 μl of protease buffer containing 10 μM of fluorescent substrate zDEVD-AFC (3 samples/lysate) for 4 hrs at room temperature. Caspase-3 enzymatic activity was measured every 1 hr by fluorescence with excitation at 405 nm and emission at 515/30 nm.
Fluorescence measurements were plotted in graphs against time and were statistically analysed by two-way ANOVA followed by Bonferroni post-tests to identify statistically significant apoptotic activities of compounds of the invention (see FIG. 3).

IC50 (MDA-MB231 cells; Exp.3, unstarred values) | IC50 (MDA-MB231TXSA cells; Exp.3) | IC50 (MDA-MB231TXSA cells; Exp.4) | IC50 (MCF-7 cells; Exp.4) | EC50 (MCF-7 cells; Exp.3) | IC50 (MDA-MB231 cells; Exp.4, unstarred values) | Compound | cell viability on breast and prostate cancer metastatic cell lines [1] | EC50 (MDA-MB231 cells; Exp.4) | IC50 (MDA-MB231 cells; Exp.1, unstarred values) | IC50 (MDA-MB231 cells; Exp.2) | IC50 (MDA-MB231TXSA cells; Exp.1) | antiproliferative activity compared with bpp(OEt) [2] | effect on cell viability [2] | further results
 |  |  |  |  |  | CC(C)=CCC/C(C)=C/CC/C(C)=C/CC[C@]1(C)CCc2cc(O)c(C)c(C)c2O1 [γ-Tocotrienol] | inhibited in a dose-dependent manner |  |  |  |  |  |  | 
103 µM | 137 µM | 88.7 µM | 54.5 µM |  |  | Cc1c(C)c2c(c(C)c1O)CC[C@@](C)(CCC[C@H](C)CCC[C@H](C)CCCC(C)C)O2 [α-toc, α-tocopherol, reference compound] |  | 131 µM |  |  |  |  |  | IC50 (MCF-7 cells; Exp.3): 54.7 µM
61.6 µM | 88.8 µM | 75.9 µM | 64.1 µM | 351 µM | 238 µM | α-tocopheryl Bisphosphonic Acid [α-toc-bpp(OH)] |  |  |  |  |  | increased | reduced cell viability | 
 |  |  |  |  |  | γ-tocopheryl Diphosphonic Acid [γ-toc-bpp(OH)] |  |  | 172 µM | 66.2 µM | 92 µM | increased | reduced cell viability | EC50 (MDA-MB231TXSA cells; Exp.2, * denotes EC50 value, read-out: EC50 value (starred) MB231-TXSA): 182 µM; EC50 (MCF-7 cells; Exp.1): 303 µM; IC50 (MCF-7 cells; Exp.2): 65.1 µM; antiproliferative activity compared with γ-tocopherol ([2]; upon esterification of γ-tocopherol): increased; apoptotic nuclei (condensed chromatin, fractured nuclei) by DAPI staining [5]: increased numbers of apoptotic nuclei; pro-apoptotic activity (Caspase-3 activity) [6]: did not show significant pro-apoptotic activity
128 µM | 98.1 µM | 73 µM | 76.8 µM | 152 µM | 281 µM | CCOP(=O)(OCC)C(CCC(=O)Oc1c(C)c(C)c2c(c1C)CCC(C)(CCCC(C)CCCC(C)CCCC(C)C)O2)P(=O)(OCC)OCC (stereo not drawn) [α-toc-bpp(OEt), α-Tocopheryl Bisphosphonic Ester] |  |  |  |  |  | increased | reduced cell viability | 

Compound | IC50 (MDA-MB231 cells; Exp.3, unstarred values) | IC50 (MDA-MB231TXSA cells; Exp.3) | IC50 (MDA-MB231TXSA cells; Exp.4) | IC50 (MCF-7 cells; Exp.4) | EC50 (MCF-7 cells; Exp.3) | IC50 (MDA-MB231 cells; Exp.4, unstarred values) | cell viability on breast and prostate cancer metastatic cell lines [1] | EC50 (MDA-MB231 cells; Exp.4) | IC50 (MDA-MB231 cells; Exp.1, unstarred values) | IC50 (MDA-MB231 cells; Exp.2) | IC50 (MDA-MB231TXSA cells; Exp.1) | antiproliferative activity compared with bpp(OEt) [2] | effect on cell viability [2] | further results
CCOP(=O)(OCC)C(CCC(=O)O)P(=O)(OCC)OCC [bpp(OEt), Tetra Ethyl 4,4-bis(phosphono)-butanoic Acid, reference compound] |  | 136 µM | 179 µM |  | 365 µM |  | without effect | 710 µM | 106 µM | 242 µM | 441 µM |  |  | EC50 (MDA-MB231 cells; Exp.3): 74.2 µM; IC50 (MDA-MB231TXSA cells; Exp.2, unstarred values): 129 µM; IC50 (MCF-7 cells; Exp.1): 107 µM; EC50 (MCF-7 cells; Exp.2): 143 µM; EC50 (MCF-7 cells; Exp.4): 1980 µM; antiproliferative/proapoptotic effect in metastatic breast cancer cell-lines [2]: did not have antiproliferative/proapoptotic effect; osteoclastogenesis of Raw264.7 (RAW264.7 cells): inhibited osteoclastogenesis in a dose-dependent manner; anti-resorptive activity of the free bisphosphonate [3]: minimal anti-resorptive activity; binding to bone substrate / bone mineral [4]: high affinity for bone
